Measured values as given in patent publication US7906488B2, “Sphingolipids in treatment and prevention of steatosis and of steatosis or of hepatotoxicity and its sequelae” (Nederlandse Organisatie Voor …, priority 2004, dated 2011).

Key:
[1] = tested on: galactosamine-injured primary rat hepatocytes; settings: cited from earlier work
APOE*3Leiden mice = assay: Effect of dietary sphingolipids on plasma C and TG levels (0.1, 0.2, 0.4% in diet); format: in vivo; settings: 0.4% sphingolipid in diet, compared with 0.2%
Excerpt: Sphingolipids: The three sphingolipids that represent the most abundant natural complex sphingolipid classes and the three of the simplest natural sphingolipids, the sphingoid bases that can be formed by enzymatic breakdown of complex sphingolipids in the intestine were used. Sphingomyelin (mainly N-palmitoyl-sphingosine-1-phosphocholine) from egg was obtained from Larodan Fine Chemicals (Stockholm, Sweden). Yeast-derived (semi)synthetic ceramide III (N-stearoyl-phytosphingosine), cerebroside (N-stearoyl-phytosphingosine-1-glucose) and phytosphingosine (PS) were from Cosmoferm BV (Delft, the Netherlands). Sphinganine and sphingosine were from Avanti Polar Lipids (Albaster, Ala.). Animals and diets: Heterozygous female APOE*3Leiden transgenic mice (Van Vlijmen et al. 1994. J. Clin. Invest 93:1403-1410.) (6 months old) were fed a Western-type diet (Hope Farms, Woerden, the Netherlands) containing 15% cocoa butter, 0.25% cholesterol, 1% corn oil, 40.5% sucrose, 20% acid casein, 10% corn starch and 5.95% cellulose (all w/w) for 5 weeks. The mice were allowed free access to food and water. Body weight and food intake were monitored weekly. In the first experiment (FIG. 2), the mice were randomized after these 5 weeks into 7 groups (n=6), based on plasma cholesterol, triglycerides, and body weight. Subsequently, the mice were fed for three weeks the same diet without or with 0.1% (w/w) phytosphingosine (PS), sphingosine, sphinganine, cerebroside, ceramide III, or sphingomyelin. […]
Plasma parameters: Tail blood samples were collected in EDTA-coated cups, or in paraoxon-coated capillaries to prevent lipolysis as described in Zambon et al. 1993 (Zambon et al. 1993. J. Lipid Res. 34:1021-1028). Plasma lipid parameters were determined using commercial kits for total cholesterol (C) Chol R1 from Roche Diagnostics, Mannheim, Germany), non-esterified free fatty acids (FFA) (NEFA-C; Wako chemicals, Neuss, Germany), Total triglycerides (TG) (Triglyceride GPO-Trinder; Sigma, St. Louis, Mo.), β-hydroxybutyrate (β-HB; Sigma) and ALAT (Reflotron GPT; Roche). Serum amyloid A (SAA) was measured by ELISA (Biosource, Nivelles, Belgium) and fibrinogen by sandwich ELISA, as described in Koopman et al., 2005 (Koopman et al. 2005. Fibrinol Proteol 11:19). […] Hepatic VLDL-TG production: The rate of hepatic VLDL-TG production, de novo apoB secretion, and VLDL composition were determined in overnight-fasted mice. […] After 30 min, the animals received a Triton WR1339 injection (Tyloxapol, Sigma; 500 mg/kg body weight in 100 μl saline) to prevent systemic lipolysis of newly-secreted hepatic VLDL-TG (Aalto-Setala et al. 1992. J. Clin. Invest 90:1889-1900.27) Blood samples were drawn at 0, 15, 30, 60, and 90 min after Triton WR1339 injection and plasma TG concentrations were determined. […]

rats = settings: administration to the food of rats; cited from earlier work
C57bI mice = settings: intraperitoneal injection; cited from earlier work

Compound | Plasma C (APOE*3Leiden mice) | other results
CCCCCCCCC/C=C\CC/C=C/[C@@H](O)[C@H](CO[C@@H]1O[C@H](CO)[C@@H](O)[C@H](O)[C@H]1O)NC(=O)CCCCCCCCCCCCCCC [LCC, 1-O-(β-D-glucopyranosyl)-(2S,3R,4E,8Z)-2-N-palmityloctadecasphinga-4,8-diene] | – | Release into the culture medium of GPT and SDH [1]: reduce the release
CCCCCCCCCCCCCCCCCC(=O)N[C@@H](CO)[C@H](O)[C@H](O)CCCCCCCCCCCCCC [ceramide III, N-stearoyl-phytosphingosine] | decreased even more | –
CCCCCCCCCCCCC/C=C/[C@@H](O)[C@H](COP(=O)([O-])OCC[N+](C)(C)C)NC(=O)CCCCCCCCCCCCCCC [sphingomyelin, N-palmitoyl-sphingosine-1-phosphocholine] | decreased even more | Chances of occurrence of malignant, chemically induced colon cancer (rats): significantly decrease
CCCCCCCCCCCCC/C=C/[C@@H](O)[C@@H](N)CO [sphingosine] | decreased even more | –
glucocerebroside | – | Liver fat content (C57bI mice): reduced
